Test results published in paper PMC12225454, “Photo-clenbuterol: Optical Control of β2‑Adrenergic Receptor Signaling by Photoswitchable Ligand Efficacy” (Journal of Medicinal Chemistry, 2025).
Where “and” joins values, the source holds several entries; their conditions need not be identical. Equal entries are not always repeated.

Legend:
[1] = UV/vis absorption spectra before and after illumination; type: physicochemical; details: 25 μM in HBSS buffer containing 1% DMSO; for λmax (nm) PSS cis: n−π* transition, approximated from PSS cis composition; for λmax (nm) trans: π–π* transition of trans isomer
[2] = Photostationary state composition by LC-MS at isosbestic point; details: for PSS cis (% cis) / PSS trans (% trans): DMSO 10 mM, LC-MS at isosbestic point; for PSS cis (% cis): after 360 ± 20 nm (12d: 520 ± 12 nm); for PSS trans (% trans): after 434 ± 9 nm from PSS cis
[3] = Photostationary state composition by 1H NMR; type: physicochemical
Description: However, it has been computationally studied by Konrad et al. who calculated the n−π* band to be 444.5 nm for the cis isomer of the parent compound in the gas phase. […] The difference between calculated and experimental value could conceivably be the result of the buffer solvent not having been included in the calculations and/or the suboptimal trans to cis conversion at PSS cis (PSS cis = 66.3%). […] The PSS cis curve is slightly […], potentially enabling trans–cis isomerization at longer wavelengths. […] However, not unexpectedly given the low absorption at 560 nm, the illumination time required is much longer (hours versus 20 min with 360 nm illumination). Such longer illumination times would only be acceptable if the pharmacological differences between the isomers were much more pronounced, not requiring full conversions to PSS cis . […] The PSS cis and PSS trans values by LC–MS analysis (Figures B and S5) at the isosbestic point (376 nm) are 66.3% and 72.5%, respectively. These are similar to the 62.4% and 78.7% values obtained from ^1H NMR analysis, in which the well-resolved signal of the benzylic CH group allowed quantification of the PSS values (Figures C and S7).

[4] = Reversible isomerization cycles under alternating illumination (photobleaching resistance); details: 25 μM in HBSS buffer containing 1% DMSO; 365 ± 11 nm / 440 ± 25 nm
human β2-AR = molecular target: T1, human β2-AR (Homo sapiens, UniProt P07550, E27Q/G16R); experiment: [3H]DHA competition radioligand binding on HEK293T membranes
T1 construct: Human β2AR (GenBank: NP_000015.1) in pcDNA3.1+ expression plasmid; expressed in transfected cells; host or cells: HEK293T cells, transient transfection with PEI; membranes prepared
T1 sequence (P07550 whole entry G16R/E27Q): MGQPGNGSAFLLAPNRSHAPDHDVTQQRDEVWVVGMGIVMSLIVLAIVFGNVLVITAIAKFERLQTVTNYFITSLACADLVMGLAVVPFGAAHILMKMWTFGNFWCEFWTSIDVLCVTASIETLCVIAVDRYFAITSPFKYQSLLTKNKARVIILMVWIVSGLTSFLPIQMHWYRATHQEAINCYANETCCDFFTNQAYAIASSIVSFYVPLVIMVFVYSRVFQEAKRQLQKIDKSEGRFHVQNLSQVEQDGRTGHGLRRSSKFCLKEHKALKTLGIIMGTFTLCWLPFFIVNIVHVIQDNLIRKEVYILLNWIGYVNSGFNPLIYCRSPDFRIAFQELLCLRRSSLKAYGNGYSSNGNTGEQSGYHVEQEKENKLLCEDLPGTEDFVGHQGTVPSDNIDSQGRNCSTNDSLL

β2-AR = β2-AR (Homo sapiens, UniProt P07550); experiment: FRET-based EPAC cAMP assay, ligand stimulation (agonist mode); type: cell-based
Chain of β2-AR (P07550 whole entry): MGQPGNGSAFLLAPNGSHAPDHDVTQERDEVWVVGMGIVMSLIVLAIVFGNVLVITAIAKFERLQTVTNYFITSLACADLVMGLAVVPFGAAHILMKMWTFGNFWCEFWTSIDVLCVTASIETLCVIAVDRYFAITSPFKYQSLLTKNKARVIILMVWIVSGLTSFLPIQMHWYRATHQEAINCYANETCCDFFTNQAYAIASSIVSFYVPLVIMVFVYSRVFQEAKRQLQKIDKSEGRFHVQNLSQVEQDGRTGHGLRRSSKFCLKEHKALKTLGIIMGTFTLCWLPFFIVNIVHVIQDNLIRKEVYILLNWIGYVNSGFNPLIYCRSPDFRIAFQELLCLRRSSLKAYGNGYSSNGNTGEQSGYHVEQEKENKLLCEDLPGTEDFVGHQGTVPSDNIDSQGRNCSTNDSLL

| SMILES | λmax (nm) PSS cis [1] [nm] | λmax (nm) trans [1] [nm] | PSS cis (% cis) [2] | PSS trans (% trans) [2] | PSS cis value from 1H NMR analysis ([3]; 10 mM in DMSO-d6, 360 ± 20 nm) [%] | PSS trans value from 1H NMR analysis ([3]; 10 mM in DMSO-d6, 434 ± 9 nm after PSS cis) [%] | PSS cis value with 560 nm light ([2]; 560 nm illumination, LC-MS) [%] | resistance to photobleaching, dynamic isomerization cycles [4] | Ki (human β2-AR) [nM] | pEC50 trans (β2-AR) | α trans, intrinsic activity Emax (ligand)/Emax (isoprenaline) (β2-AR) |
| --- | --- | --- | --- | --- | --- | --- | --- | --- | --- | --- | --- |
| CC(C)(C)NCC(O)c1ccc(/N=N/c2ccccc2)cc1 (stereo not drawn) [Compound 12a, (E)-2-(tert-Butylamino)-1-(4-(phenyldiazenyl)-phenyl)-ethan-1-ol] | 425 | 323 | 94.6 ± 0.5% | 71.8 ± 0.2% |  |  |  |  |  |  |  |
| CC(C)(C)NCC(O)c1cc(Cl)c(/N=N/c2ccccc2)c(Cl)c1 (stereo not drawn) [Compound 12b, (E)-2-(tert-Butylamino)-1-(3,5-dichloro-4-(phenyldiazenyl)phenyl)-ethan-1-ol] | 417 | 306 | 66.3% and 66.3 ± 0.9% | 72.5% and 72.5 ± 0.1% | 62.4 | 78.7 | 74.9 | at least 10 cycles |  |  |  |
| CC(C)(C)NCC(O)c1ccc(/N=N/c2ccccc2)c(Cl)c1 (stereo not drawn) [Compound 12c, (E)-2-(tert-Butylamino)-1-(3-chloro-4-(phenyldiazenyl)phenyl)-ethan-1-ol] | 428 | 328 | 97.6 ± 0.1% | 65.5 ± 0.2% |  |  |  |  |  |  |  |
| CC(C)(C)NCC(O)c1cc(Cl)c(/N=N/c2c(Cl)cccc2Cl)c(Cl)c1 (stereo not drawn) [Compound 12d, (E)-2-(tert-Butylamino)-1-(3,5-dichloro-4-((2,6-dichlorophenyl)-diazenyl)-phenyl)-ethan-1-ol] | 441 | 293 | 38.5 ± 0.5% | 94.1 ± 0.3% |  |  |  |  |  |  |  |
| CC(C)(C)NCC(O)c1cc(Cl)c(/N=N/c2ccccc2)c(C#N)c1 (stereo not drawn) [Compound 12e, (E)-5-(2-(tert-Butylamino)-1-hydroxyethyl)-3-chloro-2-(phenyldiazenyl)-benzonitrile] | 426 | 331 | 88.7 ± 0.8% | 82.0 ± 0.4% |  |  |  |  |  |  |  |
| CC(C)(C)NCC(O)c1cc(Cl)c(N)c(C#N)c1 (stereo not drawn) [Compound 18, 2-Amino-5-(2-(tert-butylamino)-1-hydroxyethyl)-3-chlorobenzonitrile] |  |  |  |  |  |  |  |  | 20 | 9.0 ± 0.0 | 0.8 ± 0.0 |
